Experimental data taken from PubChem BioAssay AID1745844 (Carcinogenic Potency Database (CPDB), 2022).
The source made the active and inactive calls. How the calls were made is not given here.

System: rodent lifetime carcinogenesis bioassay, tumor incidence TD50
Assay: carcinogenic potency in animals, long-term in vivo studies, CPDB compilation (AID 1745844)
[1] = rat, strain Fischer 344, females, in feed, site: any site (literature study), lesion: several types, types named in the paper, dosed 104 weeks, study length 104 weeks

NC(=S)NNC(N)=S
TD50 (mouse, strain B6C3F1, females, in feed, site: any site (literature study), lesion: several types, types named in the paper, dosed 94 weeks, study length 94 weeks): 4350 mg/kg/day
TD50 (mouse, strain B6C3F1, females, in feed, site: liver, lesion: hepatocellular adenoma + hepatocellular carcinoma + neoplastic nodule, dosed 94 weeks, study length 94 weeks): 5670 mg/kg/day
TD50 (mouse, strain B6C3F1, females, in feed, site: liver, lesion: hepatocellular carcinoma, dosed 94 weeks, study length 94 weeks): 5670 mg/kg/day
TD50 (mouse, strain B6C3F1, females, in feed, site: lung, lesion: alveolar/bronchiolar adenoma + alveolar/bronchiolar carcinoma, dosed 94 weeks, study length 94 weeks): 22900 mg/kg/day
TD50 (mouse, strain B6C3F1, males, in feed, site: any site (literature study), lesion: several types, types named in the paper, dosed 94 weeks, study length 94 weeks): 20000 mg/kg/day (inactive)
TD50 (rat, strain Fischer 344, females, in feed, site: any site (literature study), lesion: several types, types named in the paper, dosed 109 weeks, study length 109 weeks): 842 mg/kg/day (inactive)
TD50 (rat, strain Fischer 344, females, in feed, site: liver, lesion: hepatocellular adenoma + hepatocellular carcinoma + neoplastic nodule, dosed 109 weeks, study length 109 weeks): 131000 mg/kg/day
TD50 (rat, strain Fischer 344, males, in feed, site: any site (literature study), lesion: several types, types named in the paper, dosed 109 weeks, study length 109 weeks): 960 mg/kg/day
TD50 (rat, strain Fischer 344, males, in feed, site: liver, lesion: hepatocellular adenoma + hepatocellular carcinoma + neoplastic nodule, dosed 109 weeks, study length 109 weeks): 5010 mg/kg/day
TD50 (rat, strain Fischer 344, males, in feed, site: pituitary gland, lesion: carcinoma, NOS, dosed 109 weeks, study length 109 weeks): 2620 mg/kg/day (inactive)

CC=NN(C)C=O
TD50 (mouse, strain Swiss albino, females, by gavage, site: clitoral gland, lesion: several types, types named in the paper, dosed 52 weeks, study length 109 weeks): 38.2 mg/kg/day
TD50 (mouse, strain Swiss albino, females, by gavage, site: clitoral gland, lesion: squamous-cell carcinoma, dosed 52 weeks, study length 109 weeks): 46.4 mg/kg/day
TD50 (mouse, strain Swiss albino, females, by gavage, site: forestomach, lesion: several types, types named in the paper, dosed 52 weeks, study length 109 weeks): 28 mg/kg/day
TD50 (mouse, strain Swiss albino, females, by gavage, site: forestomach, lesion: squamous-cell papilloma, dosed 52 weeks, study length 109 weeks): 32.4 mg/kg/day
TD50 (mouse, strain Swiss albino, females, by gavage, site: liver, lesion: hepatoma, dosed 52 weeks, study length 109 weeks): 28 mg/kg/day (inactive)
TD50 (mouse, strain Swiss albino, females, by gavage, site: lung, lesion: adenocarcinoma, dosed 52 weeks, study length 109 weeks): 19.6 mg/kg/day
TD50 (mouse, strain Swiss albino, females, by gavage, site: lung, lesion: adenoma, dosed 52 weeks, study length 109 weeks): 7.37 mg/kg/day
TD50 (mouse, strain Swiss albino, females, by gavage, site: lung, lesion: several types, types named in the paper, dosed 52 weeks, study length 109 weeks): 5.66 mg/kg/day
TD50 (mouse, strain Swiss albino, males, by gavage, site: liver, lesion: hepatoma, dosed 52 weeks, study length 79 weeks): 11 mg/kg/day (inactive)
TD50 (mouse, strain Swiss albino, males, by gavage, site: lung, lesion: adenoma, dosed 52 weeks, study length 79 weeks): 13.7 mg/kg/day
TD50 (mouse, strain Swiss albino, males, by gavage, site: lung, lesion: several types, types named in the paper, dosed 52 weeks, study length 79 weeks): 14.4 mg/kg/day
TD50 (mouse, strain Swiss albino, males, by gavage, site: preputial gland, lesion: fibrosarcoma, dosed 52 weeks, study length 79 weeks): 21.3 mg/kg/day
TD50 (mouse, strain Swiss albino, males, by gavage, site: preputial gland, lesion: several types, types named in the paper, dosed 52 weeks, study length 79 weeks): 1.61 mg/kg/day
TD50 (mouse, strain Swiss albino, males, by gavage, site: preputial gland, lesion: squamous-cell carcinoma, dosed 52 weeks, study length 79 weeks): 2.17 mg/kg/day

C/C(=C(\CCOC(=O)c1ccccc1)SC(=O)c1ccccc1)N(C=O)Cc1cnc(C)nc1N
TD50 (rat, strain Sprague-Dawley, females, in feed, site: any site (literature study), lesion: malignant tumor, dosed 105 weeks, study length 105 weeks): 14300 mg/kg/day (inactive)
carcinogen call (rat, strain Sprague-Dawley, females, in feed, site: any site (literature study), lesion: several types, types named in the paper, dosed 105 weeks, study length 105 weeks): negative (inactive)
carcinogen call (rat, strain Sprague-Dawley, females, in feed, site: liver, lesion: hemangiosarcoma anaplastic, dosed 105 weeks, study length 105 weeks): negative (inactive)
TD50 (rat, strain Sprague-Dawley, males, in feed, site: any site (literature study), lesion: malignant tumor, dosed 105 weeks, study length 105 weeks): 2340 mg/kg/day (inactive)
carcinogen call (rat, strain Sprague-Dawley, males, in feed, site: any site (literature study), lesion: several types, types named in the paper, dosed 105 weeks, study length 105 weeks): negative (inactive)
TD50 (rat, strain Sprague-Dawley, males, in feed, site: liver, lesion: liver-cell tumor, benign, dosed 105 weeks, study length 105 weeks): 6980 mg/kg/day (inactive)
TD50 (rat, strain Sprague-Dawley, males, in feed, site: liver, lesion: liver-cell tumor, malignant, dosed 105 weeks, study length 105 weeks): 6770 mg/kg/day (inactive)

CN(C)c1ccc(Cc2ccc(N(C)C)cc2)cc1
TD50 (mouse, strain B6C3F1, females, in feed, site: any site (literature study), lesion: several types, types named in the paper, dosed 78 weeks, study length 91 weeks): 280 mg/kg/day
TD50 (mouse, strain B6C3F1, females, in feed, site: liver, lesion: hepatocellular adenoma + hepatocellular carcinoma + neoplastic nodule, dosed 78 weeks, study length 91 weeks): 207 mg/kg/day
TD50 (mouse, strain B6C3F1, females, in feed, site: liver, lesion: hepatocellular adenoma + hepatocellular carcinoma, dosed 78 weeks, study length 91 weeks): 207 mg/kg/day
TD50 (mouse, strain B6C3F1, females, in feed, site: lung, lesion: alveolar/bronchiolar adenoma + alveolar/bronchiolar carcinoma, dosed 78 weeks, study length 91 weeks): 1080 mg/kg/day
TD50 (mouse, strain B6C3F1, males, in feed, site: any site (literature study), lesion: several types, types named in the paper, dosed 78 weeks, study length 91 weeks): 367 mg/kg/day (inactive)
TD50 (mouse, strain B6C3F1, males, in feed, site: liver, lesion: hepatocellular adenoma + hepatocellular carcinoma + neoplastic nodule, dosed 78 weeks, study length 91 weeks): 558 mg/kg/day
TD50 (mouse, strain B6C3F1, males, in feed, site: lung, lesion: alveolar/bronchiolar adenoma + alveolar/bronchiolar carcinoma, dosed 78 weeks, study length 91 weeks): 1410 mg/kg/day
TD50 (rat, strain Fischer 344, females, in feed, site: any site (literature study), lesion: several types, types named in the paper, dosed 59 weeks, study length 104 weeks): 41.7 mg/kg/day
TD50 (rat, strain Fischer 344, females, in feed, site: liver, lesion: hepatocellular adenoma + hepatocellular carcinoma + neoplastic nodule, dosed 59 weeks, study length 104 weeks): 203 mg/kg/day
TD50 (rat, strain Fischer 344, females, in feed, site: liver, lesion: neoplastic nodule, dosed 59 weeks, study length 104 weeks): 203 mg/kg/day
TD50 (rat, strain Fischer 344, females, in feed, site: thyroid gland, lesion: follicular-cell adenoma + follicular-cell carcinoma, dosed 59 weeks, study length 104 weeks): 16.4 mg/kg/day
TD50 (rat, strain Fischer 344, females, in feed, site: thyroid gland, lesion: follicular-cell carcinoma, dosed 59 weeks, study length 104 weeks): 27.7 mg/kg/day
TD50 (rat, strain Fischer 344, males, in feed, site: any site (literature study), lesion: several types, types named in the paper, dosed 59 weeks, study length 104 weeks): 42.9 mg/kg/day
TD50 (rat, strain Fischer 344, males, in feed, site: thyroid gland, lesion: follicular-cell adenoma + follicular-cell carcinoma, dosed 59 weeks, study length 104 weeks): 16.5 mg/kg/day
TD50 (rat, strain Fischer 344, males, in feed, site: thyroid gland, lesion: follicular-cell carcinoma, dosed 59 weeks, study length 104 weeks): 28.6 mg/kg/day

COS(C)(=O)=O
TD50 (mouse, strain RF, males, in drinking water, site: liver, lesion: one or several types, types not named, dosed 104 weeks, study length 104 weeks): 3980 mg/kg/day (inactive)
TD50 (mouse, strain RF, males, in drinking water, site: lung, lesion: adenoma, dosed 104 weeks, study length 104 weeks): 31.8 mg/kg/day
TD50 (mouse, strain RF, males, in drinking water, site: thymus gland, lesion: lymphoma, dosed 104 weeks, study length 104 weeks): 185 mg/kg/day

CCCNC(=O)NS(=O)(=O)c1ccc(Cl)cc1
carcinogen call (mouse, strain B6C3F1, females, in feed, site: any site (literature study), lesion: several types, types named in the paper, dosed 104 weeks, study length 104 weeks): negative (inactive)
TD50 (mouse, strain B6C3F1, females, in feed, site: lung, lesion: alveolar/bronchiolar adenoma + alveolar/bronchiolar carcinoma, dosed 104 weeks, study length 104 weeks): 1440 mg/kg/day
carcinogen call (mouse, strain B6C3F1, males, in feed, site: any site (literature study), lesion: several types, types named in the paper, dosed 104 weeks, study length 104 weeks): negative (inactive)
carcinogen call [1]: negative (inactive)
carcinogen call (rat, strain Fischer 344, males, in feed, site: any site (literature study), lesion: several types, types named in the paper, dosed 103 weeks, study length 103 weeks): negative (inactive)

ClCOCCOCCl
TD50 (mouse, strain Ha/ICR, females, i.p., site: abdomen, lesion: several types, types named in the paper, dosed 78 weeks, study length 78 weeks): 4.62 mg/kg/day

O=C1c2ccccc2-c2ccc3c4c(ccc1c24)-c1ccccc1C3=O
carcinogen call (mouse, strain B6C3F1, females, in feed, site: any site (literature study), lesion: several types, types named in the paper, dosed 106 weeks, study length 106 weeks): negative (inactive)
TD50 (mouse, strain B6C3F1, females, in feed, site: liver, lesion: hepatocellular adenoma + hepatocellular carcinoma + neoplastic nodule, dosed 106 weeks, study length 106 weeks): 23900 mg/kg/day
TD50 (mouse, strain B6C3F1, males, in feed, site: all sites, lesion: lymphoma, dosed 106 weeks, study length 106 weeks): 10900 mg/kg/day
TD50 (mouse, strain B6C3F1, males, in feed, site: any site (literature study), lesion: several types, types named in the paper, dosed 106 weeks, study length 106 weeks): 4410 mg/kg/day
TD50 (mouse, strain B6C3F1, males, in feed, site: liver, lesion: hepatocellular adenoma + hepatocellular carcinoma + neoplastic nodule, dosed 106 weeks, study length 106 weeks): 8610 mg/kg/day
TD50 (mouse, strain B6C3F1, males, in feed, site: lung, lesion: alveolar/bronchiolar adenoma + alveolar/bronchiolar carcinoma, dosed 106 weeks, study length 106 weeks): 19100 mg/kg/day
carcinogen call [1]: negative (inactive)
TD50 (rat, strain Fischer 344, males, in feed, site: any site (literature study), lesion: several types, types named in the paper, dosed 104 weeks, study length 104 weeks): 787 mg/kg/day (inactive)
TD50 (rat, strain Fischer 344, males, in feed, site: liver, lesion: hepatocellular adenoma + hepatocellular carcinoma + neoplastic nodule, dosed 104 weeks, study length 104 weeks): 2790 mg/kg/day

CN(C)C(=S)S[Se](SC(=S)N(C)C)(SC(=S)N(C)C)SC(=S)N(C)C
carcinogen call (mouse, strain B6AKF1, females, oral dosing, site: any site (literature study), lesion: several types, types named in the paper, dosed 76 weeks, study length 76 weeks): negative (inactive)
carcinogen call (mouse, strain B6AKF1, females, oral dosing, site: liver, lesion: hepatoma, dosed 76 weeks, study length 76 weeks): negative (inactive)
carcinogen call (mouse, strain B6AKF1, females, oral dosing, site: lung, lesion: adenoma, dosed 76 weeks, study length 76 weeks): negative (inactive)
carcinogen call (mouse, strain B6AKF1, males, oral dosing, site: any site (literature study), lesion: several types, types named in the paper, dosed 76 weeks, study length 76 weeks): negative (inactive)
carcinogen call (mouse, strain B6AKF1, males, oral dosing, site: liver, lesion: hepatoma, dosed 76 weeks, study length 76 weeks): negative (inactive)
carcinogen call (mouse, strain B6AKF1, males, oral dosing, site: lung, lesion: adenoma, dosed 76 weeks, study length 76 weeks): negative (inactive)
carcinogen call (mouse, strain B6C3F1, females, oral dosing, site: any site (literature study), lesion: one or several types, types not named, dosed 76 weeks, study length 76 weeks): negative (inactive)
carcinogen call (mouse, strain B6C3F1, females, oral dosing, site: liver, lesion: hepatoma, dosed 76 weeks, study length 76 weeks): negative (inactive)
carcinogen call (mouse, strain B6C3F1, females, oral dosing, site: lung, lesion: several types, types named in the paper, dosed 76 weeks, study length 76 weeks): negative (inactive)
TD50 (mouse, strain B6C3F1, males, oral dosing, site: any site (literature study), lesion: several types, types named in the paper, dosed 76 weeks, study length 76 weeks): 5.88 mg/kg/day (inactive)
TD50 (mouse, strain B6C3F1, males, oral dosing, site: liver, lesion: hepatoma, dosed 76 weeks, study length 76 weeks): 26 mg/kg/day (inactive)
carcinogen call (mouse, strain B6C3F1, males, oral dosing, site: lung, lesion: several types, types named in the paper, dosed 76 weeks, study length 76 weeks): negative (inactive)

C/C=C(\C)C(=O)O[C@@H]1CCN2CC=C(COC(=O)[C@](O)(C(C)C)[C@H](C)O)[C@H]12
TD50 (rat, strain ACI, males, i.p., site: any site (literature study), lesion: several types, types named in the paper, dosed 56 weeks, study length 92 weeks): 4.5 mg/kg/day
TD50 (rat, strain ACI, males, i.p., site: liver, lesion: several types, types named in the paper, dosed 56 weeks, study length 92 weeks): 1.91 mg/kg/day
